Laboratory results as given in PubChem BioAssay (NCI).
Several values for one entry are separate records, joined by “and”; a condition that tells them apart may be missing. Identical values can stand only once.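 Grown in 96-well plates, cells were treated for 48 hours with each compound at five concentrations. Insufficient inhibition: endpoint recorded as highest concentration tested. Abbreviation: GI50, concentration required for 50% inhibition of growth. TGI is the concentration that stops growth completely.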

Columns and labels:
Test in all cases: NCI tumour cell line growth inhibition, 48 h
NCI-H522 lung = test system: NCI-H522 lung
A498 renal = test system: A498 renal
U251 CNS = test system: U251 CNS
SK-MEL-5 melanoma = test system: SK-MEL-5 melanoma
NCI-H460 lung = test system: NCI-H460 lung
SK-MEL-28 melanoma = test system: SK-MEL-28 melanoma
SNB-75 CNS = test system: SNB-75 CNS
LXFL 529 NSCLC = test system: LXFL 529 NSCLC
DLD-1 colon = test system: DLD-1 colon

Compound	TGI (NCI-H522 lung)	TGI (A498 renal)	TGI (U251 CNS)	TGI (SK-MEL-5 melanoma)	TGI (NCI-H460 lung)	TGI (SK-MEL-28 melanoma)	TGI (SNB-75 CNS)	TGI (LXFL 529 NSCLC)	TGI (DLD-1 colon)	GI50 (A498 renal) [µM]	GI50 (U251 CNS) [µM]	GI50 (NCI-H460 lung) [µM]	GI50 (SK-MEL-28 melanoma) [µM]	GI50 (SNB-75 CNS) [µM]	GI50 (LXFL 529 NSCLC) [µM]	GI50 (DLD-1 colon) [µM]
O=C(CNC(=O)OCc1ccccc1)Oc1ccccc1	> 100 µM	> 100 µM	> 100 µM	> 100 µM	> 100 µM	> 100 µM	> 100 µM	> 100 µM	> 100 µM							
CCOc1cc2c(cnc3c4cc(OC)c(OC)cc4ccc23)cc1OC	> 100 µM	> 100 µM	> 100 µM	> 100 µM	> 100 µM	> 100 µM	> 100 µM	> 100 µM	> 100 µM							
S=c1[nH]c(=S)c2sc(=S)n(-c3ccccc3)c2[nH]1	> 100 µM	> 100 µM	> 100 µM	> 100 µM	> 100 µM	> 100 µM	> 100 µM	> 100 µM	> 100 µM							
CC(=O)OCC1OC(OC2CC3C(C)(C)C(OC(C)=O)CC[C@]3(C)C3CCC45CC4(CC[C@H]5C(C)CC(O)[C@@H](O)C(C)(C)O)[C@]23C)C(O)C(O)C1O (some centres not stated)	7.17 µM and 7.74 µM	13.2 µM and 35.6 µM	12.3 µM and 15.6 µM	13.2 µM and 19.7 µM	16.2 µM and 19.5 µM	13.7 µM and 17.8 µM	12 µM and 16.8 µM	11.3 µM and 16.2 µM	13.7 µM and 23.2 µM	19.6	4.3	6.88	5.21	5.04	4.65	10.4
O=C(O)c1c2c(c(C(=O)O)c3ccccc13)-c1ccccc1-2	> 100 µM	> 100 µM	> 100 µM			> 100 µM	> 100 µM	> 100 µM	> 100 µM							
Cc1nc2c(=O)[nH]c(=O)n(C)c2[nH]c1=O	> 100 µM	> 100 µM	> 100 µM	> 100 µM	> 100 µM	> 100 µM	> 100 µM	> 100 µM	> 100 µM							
COc1ccc(C(=O)C(c2ccc(OC)cc2)C2(O)C(=O)Nc3c(C)cc(Cl)cc32)cc1 (configuration not stated)	> 100 µM	> 100 µM	> 100 µM		> 100 µM	> 100 µM	> 100 µM	> 100 µM	> 100 µM							
Cc1cc(O)c(C(=O)CC2(O)C(=O)Nc3c(Cl)cc(Cl)cc32)c(=O)o1 (configuration not stated)	> 100 µM	> 100 µM	> 100 µM	> 100 µM	> 100 µM	> 100 µM	95.1 µM	> 100 µM	> 100 µM							
CC(C)=CC(=O)Oc1ccc([N+](=O)[O-])cc1	14.8 µM	> 100 µM	> 100 µM	> 100 µM	> 100 µM		> 100 µM	> 100 µM	> 100 µM							
CC(=O)NC1=C(Nc2ccc(C)cc2)C(=O)c2ccccc2C1=O		> 75 µM	> 75 µM	20.4 µM	22.9 µM	39.1 µM	22.6 µM	> 75 µM	> 75 µM							
